Columns and labels:
FASN = FASN protein level by western blot in steatosis-induced HepG2, 7-day drug treatment; assay type: cell-based; conditions: steatosis-induced HepG2, 7 days of drug treatment, P<0.05, FIG. 2C
Experimental: WT HepG2 was included in this study and cultured by Roswell Park Memorial Institute (RPMI, R2405, Sigma Aldrich) 1640 Medium with 10% fetal bovine serum (FBS) and 1% penicillin-streptomycin (PS). To induce a steatosis model into WT HepG2 cells, high glucose Dulbecco's Modified Eagle Media (DMEM, D0822/D5671, Sigma-Aldrich) containing 10% FBS and 1% PS was used as medium for one week, together with 10 μg/mL insulin and 10 μM T0901317. All of cells were incubated in the incubator with 5% CO2 and 37° C. (Thermo SCIENTIFIC). Fresh medium was provided every two days.
As for drug-screening, different numbers of HepG2 cells were seeded for distinct experiments. More in details, 40,000 cells and 500,000 cells were used for 2-day-drug treatment in 96-well-plate and 6-well plate, respectively, while 80,000 cells and 300,000 cells were used for one-week drug treatment in 96-well plate and 6-well plate, respectively. Detailed drug dosages could be found in FIG. 5. Fresh medium was provided every two days.
Protein content levels were detected by western blot. After the respective treatment of drugs, the cell pellets were lysed in cell lytic M, followed by protein extraction from supernatant (10 min, 13,000r/min centrifuge). Extracted cell lysate was stored in −20° C. Proteins were quantified through Bovine albumin serum (BAS) standard curve with protein assay dye reagent (BIO-RAD). The proteins were separated by SDS-PAGE with 100v in 90 min by mini-protein TGX precast gels (4-15%, 15 wells, 15 μl/well, BIO-RAD), and then transfer to Mini PVDF transfer package through transfer system (Transfer-Turbo, BIO-RAD). After 30 min blocking with 5% skim milk in cold room (4° C.) and washing with TBST, membrane was cut by the size of interested proteins. Primary antibodies were added into the corresponding membrane sections for overnight binding. Then the membranes were washed with TBST, and the secondary antibodies were incubated for 1 h in cold room. The following antibody were used: (Goat pAb to Rb lg, ab205718, abcam; Rb pAb to beta-actin, ab8227, abcam; anti-pklr, HPA006653, SIGMA; Rb pAb to fatty acid synthase, ab99539, abcam). The bindings were imaged by immunostaining and machine (ImageQuant LAS 500). All antibodies were purchased from Abcam online, and βactin was used as global normalized protein. After measurement, the strength of signal for each protein was quantified by ImageJ. The background noise was removed, and all results were normalized by the levels of β-actin.
To further analyse the effect of these drugs on lipid accumulation via the DNL pathway, steatosis was induced to HepG2 by treating the cells with high glucose medium (DMEM), insulin and T0901317 (Hansmannel et al., 2006). […] Therefore, the effects of these two drugs on the de novo synthesis of lipids were investigated based on the steatosis-induced HepG2 model. […] Taken together, it was shown that BX-912 and JNK-IN-5A effectively alleviate the protein expression of PKLR and FASN as well as TG levels in HepG2 cell lines, and thus, it was decided to perform in vivo evaluations to test the effect of these two drugs.

HepG2 cells = experiment: MTT assay of liver cancer cell viability; assay type: cell-based; conditions: HepG2, 10 μM, two days, FIG. 4
Experimental: HepG2 cells were seeded into a 96 well plate at 20,000 cells per well as hexaplicated. Next day, treatment of the cells with 10 μM drugs (BX-912 and JNK-IN-5A) was started. The treatment lasted for two days. Cell viability was measured using MTT assay. Cells were incubated with 5 mg/ml MTT 3-4 5-DIMETHYLTHIAZ ([…] Thermo fisher) in PBS for 2 h. Microplate reader measured cell viability O.D at 570 nm.

HSD-fed rats = experiment: In vivo efficacy study in HSD-fed steatosis rats: histopathological examination; conditions: 30 mg/kg; for degeneration in renal tubule epithelium / fattening in the parenchyma cells of pancreas tissues / degeneration in hepatocytes in liver tissues / steatosis in hepatocytes in liver tissues: HSD 3w group: severe; for degeneration in hepatocytes in liver tissues / steatosis in hepatocytes in liver tissues: FIG. 3
Description: In vivo efficacy studies. After 1-week acclimation period, rats were randomly separated into two groups: control group (n=5) and high sucrose group (n=20). The control group was fed with a standard diet while the others consumed high sucrose diet (HSD). Sucrose was purchased from Sigma Chemical Co. (St Louis, MO, USA) and supplied at the dose of 10% in the drink water for two weeks.
After 2 weeks, five rats in the HSD group were randomly sacrificed for conformation of NAFLD model. Then, the remaining rats in the HSD group were separated into three sub-groups (n=5): HSD group, HSD plus BX-912 group and HSD plus JNK-IN-5A group. BX-912 and JNK-IN-5A were dissolved in DMSO and were orally administrated using oral gavage for one week (30 mg/kg/day). The HSD group were treated with vehicle solution only.
At the end of the experiment, rats were sacrificed after being anesthetized. Blood samples were collected from the abdominal aorta and centrifuged at 8000 rpm for 15 min at 4° C. The plasma was separated and stored at −80° C. until further analysis. Other internal organs, including the heart, adipose tissues, liver, kidney, muscle, intestine (duodenum, ileum, jejunum), pancreas, colon and stomach were immediately removed and then snap frozen in liquid nitrogen and stored at −80° C.; the liver was also fixed in 10% formaldehyde for histopathological examination.
Histopathological examination. The liver tissues were fixed in 10% buffered formaldehyde solution. After fixation, the tissues were passed through graded alcohol and xylene series and embedded in paraffin blocks. 5 micrometer thick sections were taken serially from the paraffin blocks. Histopathological changes were evaluated by performing hematoxylin eosin staining on the sections taken. Sections were evaluated according to histopathological findings as none (−), mild (+), moderate (++) and severe (+++).
Next, the efficacy of these two drugs in a steatosis rat study was investigated by feeding the animals with HSD. Five groups of 12-week-old rats (n=5) were raised. For two weeks, the first group was fed with CHOW and the remaining four groups were fed with HSD. […] One of the remaining groups was fed with HSD (HSD 3w) for seven days. Another one of the remaining groups was fed with HSD plus BX-912 (30 mg/kg) for seven days. The last one of the remaining groups was fed with HSD plus JNK-IN-5A (30 mg/kg) for seven days. After said seven days, all three groups were sacrificed, and tissue samples from the liver and other major organs and blood samples were collected for efficacy examination. A histopathological and immunohistochemical analysis was performed on the liver samples and other major organs obtained from the three rat groups.

| Compound | protein expression level of FASN (FASN) | viability of liver cancer cells in the MTT assay (HepG2 cells) | toxic effect on small intestine, large intestine, stomach, heart and muscle tissues (HSD-fed rats; HSD-fed rats, 7 days) | degeneration in renal tubule epithelium (HSD-fed rats; HSD-fed rats, 7 days) | fattening in the parenchyma cells of pancreas tissues (HSD-fed rats; HSD-fed rats, 7 days) | degeneration in hepatocytes in liver tissues (HSD-fed rats; HSD-fed rats, 7 days) | steatosis in hepatocytes in liver tissues (HSD-fed rats; HSD-fed rats, 7 days) | toxic effect on small intestine, large intestine, stomach, heart and muscle tissues (HSD-fed rats; rat, in vivo) |
| --- | --- | --- | --- | --- | --- | --- | --- | --- |
| N#Cc1c(NC(=O)c2cccc3ccccc23)sc2c1CCCC2 [JNK-IN-5A, N-(3-cyano-4,5,6,7-tetrahydrobenzo [b]thien-2-yl)-1-naphthalenecarboxamide] | significantly reduced | significantly reduced | no toxic effect | mild | mild | mild | mild | – |
| O=C(Nc1cccc(Nc2ncc(Br)c(NCCc3cnc[nH]3)n2)c1)N1CCCC1 [BX-912, N-[3-[[5-bromo-4-[[2-(1H-imidazol-5-yl)ethyl]amino]-2-pyrimidinyl]amino]phenyl]-1-pyrrolidinecarboxamide] | significantly reduced | significantly reduced | – | mild | mild | Mild | moderate | no toxic effect |
